Reference: article PMC10541190 (The Journal of Clinical Investigation, 2023)
“And” between values parts separate entries of the source, which are not always exact repeats. Equal entries are not always repeated. Where two headings read alike, the source gives them in different places.

Key:
VEEV (TC-83) [1] = test: microbe, parasite or virus in culture; assay type: cell-based; conditions: Venezuelan equine encephalitis virus, U-87 MG, read-out: EC50, VEEV (TC-83) infection
RAF1 = conditions: cited from earlier work
ACE2 = assay type: cell-based, human
[2] = tested on: SARS-CoV-2 (Belgium-GHB-03021); assay type: cell-based
SARS-CoV-2 [3] = assay type: cell-based
in vitro [4] = conditions: African green monkey
in vitro [5] = conditions: human, Huh7 cell viability (%)
[6] = tested on: TNF-α, IL-1β, IL-6, MCP-1; assay type: cell-based, human
STK10 = conditions: cited from earlier work
in vitro [7] = conditions: human, Cell viability (%)
rVSV-SARS-CoV-2-S [8] = test: microbe, parasite or virus in culture; assay type: cell-based; conditions: Severe acute respiratory syndrome coronavirus 2, Vero, read-out: EC50, rVSV-SARS-CoV-2-S infection
rVSV-SARS-CoV-2-S [9] = assay type: cell-based
[10] = tested on: claudin-7 tight junctions; assay type: cell-based, human
DENV2 [11] = assay type: cell-based
VEEV (TC-83) [12] = assay type: cell-based
rVSV-SARS-CoV-2-S [13] = test: microbe, parasite or virus in culture; assay type: cell-based
[14] = tested on: SARS-CoV-2 (USA-WA1/2020); test: microbe, parasite or virus in culture; assay type: cell-based; conditions: Severe acute respiratory syndrome coronavirus 2, read-out: EC50, viral replication by plaque assay
[15] = human, in vivo; cited from earlier work
A549 cells = conditions: human
AKT, ERK, and p38 MAPK = assay type: cell-based, human
DENV2 [16] = test: microbe, parasite or virus in culture; assay type: cell-based; conditions: Dengue virus, DENV2, Huh-7, read-out: EC50, DENV2 replication
[17] = tested on: SARS-CoV-2 (USA-WA1/2020); test: microbe, parasite or virus in culture; assay type: cell-based; conditions: Severe acute respiratory syndrome coronavirus 2, Vero
ErbB1 = conditions: cited from earlier work
ErbB4 [18] = molecular target: ErbB4 (Homo sapiens, UniProt Q15303); test: biochemical; conditions: read-out: ErbB4 activity (%)
ErbB4 (Homo sapiens, UniProt Q15303), sequence (Q15303 26-1308): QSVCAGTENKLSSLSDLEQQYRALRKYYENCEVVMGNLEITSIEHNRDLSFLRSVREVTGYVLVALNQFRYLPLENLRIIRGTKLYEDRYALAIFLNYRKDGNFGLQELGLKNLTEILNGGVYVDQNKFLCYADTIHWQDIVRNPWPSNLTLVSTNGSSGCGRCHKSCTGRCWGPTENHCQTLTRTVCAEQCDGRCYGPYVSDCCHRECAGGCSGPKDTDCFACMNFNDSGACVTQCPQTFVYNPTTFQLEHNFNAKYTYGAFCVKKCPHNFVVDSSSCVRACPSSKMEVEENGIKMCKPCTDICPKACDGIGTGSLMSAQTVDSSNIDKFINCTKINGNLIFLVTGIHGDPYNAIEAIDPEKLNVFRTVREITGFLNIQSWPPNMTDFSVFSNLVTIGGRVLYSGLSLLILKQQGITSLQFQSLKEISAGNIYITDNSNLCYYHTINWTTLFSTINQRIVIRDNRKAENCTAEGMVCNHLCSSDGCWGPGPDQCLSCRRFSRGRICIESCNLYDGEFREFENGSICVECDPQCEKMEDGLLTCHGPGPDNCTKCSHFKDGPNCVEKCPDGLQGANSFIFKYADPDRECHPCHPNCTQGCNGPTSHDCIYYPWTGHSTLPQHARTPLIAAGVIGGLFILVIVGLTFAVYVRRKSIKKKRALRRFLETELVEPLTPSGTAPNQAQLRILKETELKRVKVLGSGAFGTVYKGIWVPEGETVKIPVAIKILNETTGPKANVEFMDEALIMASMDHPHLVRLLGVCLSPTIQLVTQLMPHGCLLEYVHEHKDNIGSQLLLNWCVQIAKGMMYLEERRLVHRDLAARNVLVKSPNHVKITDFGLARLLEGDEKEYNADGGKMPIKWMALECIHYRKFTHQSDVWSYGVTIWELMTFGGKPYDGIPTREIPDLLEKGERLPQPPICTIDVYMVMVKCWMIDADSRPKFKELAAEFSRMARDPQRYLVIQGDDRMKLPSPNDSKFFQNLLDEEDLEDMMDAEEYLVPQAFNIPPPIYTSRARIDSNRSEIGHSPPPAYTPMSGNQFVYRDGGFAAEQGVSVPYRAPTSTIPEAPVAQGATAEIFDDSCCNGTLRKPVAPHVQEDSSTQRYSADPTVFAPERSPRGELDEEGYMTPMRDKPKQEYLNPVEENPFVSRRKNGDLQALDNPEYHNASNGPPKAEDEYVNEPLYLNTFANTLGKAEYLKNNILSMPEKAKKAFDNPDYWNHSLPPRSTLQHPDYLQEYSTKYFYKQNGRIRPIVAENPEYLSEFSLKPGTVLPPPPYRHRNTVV

ErbB2 (HER2) = ErbB2 (HER2) (Homo sapiens, UniProt P04626); test: biochemical; conditions: read-out: ErbB2 activity (%)
ErbB2 (HER2), sequence (P04626 23-1255): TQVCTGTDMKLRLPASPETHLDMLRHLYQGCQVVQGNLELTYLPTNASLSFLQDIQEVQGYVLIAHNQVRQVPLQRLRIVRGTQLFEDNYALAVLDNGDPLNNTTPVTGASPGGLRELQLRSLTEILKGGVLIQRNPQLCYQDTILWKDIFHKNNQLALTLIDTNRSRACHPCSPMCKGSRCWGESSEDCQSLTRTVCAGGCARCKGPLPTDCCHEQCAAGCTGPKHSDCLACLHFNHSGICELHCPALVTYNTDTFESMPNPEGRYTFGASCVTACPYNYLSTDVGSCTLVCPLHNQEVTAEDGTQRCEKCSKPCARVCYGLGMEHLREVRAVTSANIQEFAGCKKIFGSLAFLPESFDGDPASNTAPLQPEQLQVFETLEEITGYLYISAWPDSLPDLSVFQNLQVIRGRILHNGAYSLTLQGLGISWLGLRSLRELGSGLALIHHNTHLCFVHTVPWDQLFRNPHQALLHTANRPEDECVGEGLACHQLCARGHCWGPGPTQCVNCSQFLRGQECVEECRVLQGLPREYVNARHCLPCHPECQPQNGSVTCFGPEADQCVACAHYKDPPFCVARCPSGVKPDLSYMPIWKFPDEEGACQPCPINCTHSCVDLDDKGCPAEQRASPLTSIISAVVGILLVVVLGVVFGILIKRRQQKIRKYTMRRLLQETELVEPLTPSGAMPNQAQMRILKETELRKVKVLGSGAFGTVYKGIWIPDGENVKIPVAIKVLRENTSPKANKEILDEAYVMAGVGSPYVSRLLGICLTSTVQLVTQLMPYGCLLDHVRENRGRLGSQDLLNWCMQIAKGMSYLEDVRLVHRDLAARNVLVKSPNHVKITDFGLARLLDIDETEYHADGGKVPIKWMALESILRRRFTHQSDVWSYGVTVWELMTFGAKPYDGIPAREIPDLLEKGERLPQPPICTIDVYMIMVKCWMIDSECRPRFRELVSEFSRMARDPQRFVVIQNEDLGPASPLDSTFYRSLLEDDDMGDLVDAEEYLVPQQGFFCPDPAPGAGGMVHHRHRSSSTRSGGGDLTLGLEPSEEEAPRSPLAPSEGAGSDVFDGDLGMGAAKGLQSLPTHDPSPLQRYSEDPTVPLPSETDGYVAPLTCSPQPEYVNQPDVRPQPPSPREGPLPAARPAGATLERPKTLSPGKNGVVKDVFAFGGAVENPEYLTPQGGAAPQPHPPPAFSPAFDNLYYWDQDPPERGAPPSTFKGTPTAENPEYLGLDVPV

VEEV (TrD) = assay type: cell-based
ErbB4 [19] = assay type: cell-based
MARV (Ci67 strain) = test: organism not typed; assay type: cell-based; conditions: Huh-7, read-out: EC50, MARV replication
SARS-CoV-2 [20] = assay type: cell-based; remark: listed apart in the source
[21] = tested on: SARS-CoV-2 (USA-WA1/2020); assay type: cell-based
[22] = tested on: brain microvascular endothelial cell monolayer
[23] = tested on: SARS-CoV-2 (USA-WA1/2020); test: microbe, parasite or virus in culture; assay type: cell-based; conditions: Severe acute respiratory syndrome coronavirus 2, Calu-3, read-out: EC50, SARS-CoV-2 infection
Huh7 cells = conditions: human
Vero cells = conditions: African green monkey
Calu-3 cells = conditions: human, 1.25 µM
ErbB2 = ErbB2 (Homo sapiens, UniProt P04626); assay type: cell-based
ErbB2, sequence (P04626 23-1255): as above

[24] = tested on: SARS-CoV-2 main protease (Mpro); conditions: cited from earlier work
[25] = tested on: MPOXV 2003 and MPOXV 2022; test: microbe, parasite or virus in culture; assay type: cell-based; conditions: Monkeypox virus, A549, read-out: EC50, monkeypox replication

SMILES: CS(=O)(=O)CCNCc1ccc(-c2ccc3ncnc(Nc4ccc(OCc5cccc(F)c5)c(Cl)c4)c3c2)o1 [Lapatinib]
- EC50 (VEEV (TC-83) [1]): 1200 nM
- Other targets: RAF1 (% of control) (RAF1): RAF1 (0%), STK10 (1.4%), RIPK2 (6.1%), MAP2K5 (12%), SLK (18%)
- cell surface level of ACE2 in infected cells (ACE2): reversed the effect of SARS-CoV-2 infection
- rescue of Vero-eGFP cells from SARS-CoV-2-induced lethality, dose response [2]: dose-dependent rescue
- suppression of viral infection (SARS-CoV-2 [3]): 98% and 75% and 99% and 84% and 57%
- CC50 (in vitro [4]): > 20 µM
- viability at 6.67 µM (in vitro [4]; Cell viability (%)): 86.8%
- viability at 20 µM (in vitro [4]; Cell viability (%)): 64%
- viability at 20 µM (in vitro [4]; Vero cell viability (%)): 85%
- viability at 0.37 µM (in vitro [5]): 103%
- viability at 3.333 µM (in vitro [5]): 105%
- IL-6 concentration in ALOs' supernatants [6]: 6.30 pg/mL and 5.01 pg/mL and 5.83 pg/mL and 5.58 pg/mL and 5.85 pg/mL and 5.34 pg/mL and 4.40 pg/mL and 3.70 pg/mL
- MCP-1 concentration in ALOs' supernatants [6]: 39.85 pg/mL and 40.23 pg/mL and 32.64 pg/mL and 29.59 pg/mL and 33.59 pg/mL and 31.32 pg/mL and 47.61 pg/mL and 36.68 pg/mL
- concentration achieving cytokine levels at or lower than in uninfected monolayers [6]: 0.5 µM
- expression level of MCP-1 [6]: increased
- expression level of TNF-α, IL-1β and IL-6 [6]: dose-dependently reduced
- Other targets: STK10 (% of control) (STK10): RAF1 (0%), STK10 (1.4%), RIPK2 (6.1%), MAP2K5 (12%), SLK (18%)
- viability at 20 µM (in vitro [7]): 68.5%
- EC50 (rVSV-SARS-CoV-2-S [8]): 3.2 µM
- effect on rVSV-SARS-CoV-2-S infection when added upon or after virus binding (rVSV-SARS-CoV-2-S [9]): comparable effects
- claudin-7 morphology and alveolar-like architecture [10]: intact claudin-7 morphology
- replication of DENV2 (DENV2 [11]): dose-dependently inhibited replication
- replication of TC-83 (VEEV (TC-83) [12]): dose-dependently inhibited replication
- EC50 (rVSV-SARS-CoV-2-S [13]; Severe acute respiratory syndrome coronavirus 2, Calu-3, read-out: EC50, rVSV-SARS-CoV-2-S infection): 2600 to 3200 nM
- EC50 (rVSV-SARS-CoV-2-S [13]; read-out: EC50, rVSV-SARS-CoV-2-S infection): 2600 nM
- EC50 [14]: 400 nM
- estimated incidence of pneumonitis, interstitial lung disease or lung fibrosis [15]: 0.2%
- A549 viability (%) (A549 cells): 103.13%
- SARS-CoV-2-induced activation of AKT and ERK (1.5 and 24 hpi) and p38 MAPK (24 hpi) (AKT, ERK, and p38 MAPK): dramatically inhibited
- EC50 (DENV2 [16]): 2000 nM
- EC50 ([17]; 24 h, read-out: SARS-CoV-2 EC50): 500 nM
- EC50 ([17]; read-out: EC50, SARS-CoV-2 infection): 500 nM
- % of control, ErbB1 (ErbB1): 5.3 nM 0%
- activity at 0.001 µM (ErbB4 [18]): 104%
- activity at 0.003 µM (ErbB4 [18]): 93.7%
- activity at 0.009 µM (ErbB4 [18]): 68.4%
- activity at 0.247 µM (ErbB4 [18]): 17.5%
- activity at 2.222 µM (ErbB4 [18]): 6.13%
- activity at 6.667 µM (ErbB4 [18]): 3.13%
- activity at 20 µM (ErbB4 [18]): 2.93%
- activity at […] (ErbB4 [18]): 31.2% and 54.5% and 8.67%
- activity at 0.001 µM (ErbB2 (HER2)): 91.6%
- activity at 0.003 µM (ErbB2 (HER2)): 84.5%
- activity at 0.009 µM (ErbB2 (HER2)): 64%
- activity at 0.247 µM (ErbB2 (HER2)): 14%
- activity at 2.222 µM (ErbB2 (HER2)): 3.4%
- activity at 6.667 µM (ErbB2 (HER2)): 2.28%
- activity at 20 µM (ErbB2 (HER2)): 2%
- activity at […] (ErbB2 (HER2)): 27.2% and 45.3% and 6.63%
- VEEV (TrD) replication in vascular and brain sides of the gNVU (VEEV (TrD)): suppressed VEEV (TrD) replication
- antiviral effect on VEEV (TC-83) upon ectopic expression of WT ErbB4 (ErbB4 [19]): completely or partially reversed
- EC50 (MARV (Ci67 strain)): 2000 nM
- mean Manders' coefficient, colocalization of nucleocapsid and Rab7 (SARS-CoV-2 [20]): 0.33
- number of nucleocapsid puncta per cell (SARS-CoV-2 [20]): significantly reduced
- SARS-CoV-2 nucleocapsid staining (confocal IF) [21]: near-complete disappearance
- barrier integrity (FITC-dextran permeability) [22]: maintained barrier integrity
- EC50 [23]: 700 nM
- Huh7 cell viability (%) (Huh7 cells; 1.111 µM): 102.98%
- Huh7 cell viability (%) (Huh7 cells; 10 µM): 86.28%
- CC50 (Vero cells): > 20 µM
- Calu-3 cell viability (%) (Calu-3 cells): 85.68%
- increase in cell surface level of ErbB2 (ErbB2): more than 2 fold
- effect on SARS-CoV-2 main protease (Mpro) [24]: inhibits
- EC50 [25]: 6.2 to 7.6 µM
